Experimental data published in patent publication US20170002041A1, “NOVEL ULTRASHORT HYDROPHOBIC PEPTIDES THAT SELF-ASSEMBLE INTO NANOFIBROUS HYDROGELS AND THEIR USES” (AGENCY FOR SCIENCE, TECHNOLOGY AND RESEARCH, priority 2013, published 2017).

Assays:
Format in all cases: physicochemical
[1] = Hydrogel formation / minimum gelation concentration
Text: To prepare the peptide hydrogels, the lyophilized peptide powders were first dissolved in milliQ water and mixed by vortexing for 30 seconds to obtain a homogenous solution. The gelation occurred between minutes to overnight, depending on the peptide concentration. Gelation can be facilitated by sonication or heating.

[2] = Formation of aggregates and fibrous structures
[3] = Hydrogel rigidity, storage modulus (G′)

Ac-ILVAG
hydrogel formation ([1]; at 5 mg/mL): hydrogel

Ac-LD6 (L)
concentration at which formation of aggregates is observed [2]: 100 µg/mL
concentration at which peptide monomers align to form fibrous structures [2]: 1000 µg/mL

Ac-LIVAGK-NH2
minimum gelation concentration (forms hydrogels at) ([1]; in 10 mM NaOH): 10 mg/mL
minimum gelation concentration (forms hydrogels at) ([1]; in PBS): 7.5 mg/mL
minimum gelation concentration (forms hydrogels at) ([1]; in saline): 12 mg/mL
minimum gelation concentration (forms hydrogels at) ([1]; in water): 20 mg/mL
storage modulus (G′) ([3]; 20 mg/mL hydrogel in normal saline (NaCl)): 10 kPa
storage modulus (G′) ([3]; 20 mg/mL hydrogel in phosphate buffered saline (PBS)): 40 kPa
storage modulus (G′) ([3]; 20 mg/mL hydrogel in water): 1 kPa
storage modulus (G′) ([3]; 20 mg/mL hydrogel, addition of sodium hydroxide (NaOH)): 80 kPa
